Results as given in the NIST ThermoML archive (doi:10.1016/j.fluid.2016.02.011).

Key:
[1] = refractive index (Na D-line) (dimensionless); conditions: 100 kPa, Liquid, minimum deviations angle
[2] = refractive index (Na D-line) (dimensionless); xn = mol fraction of the nth substance listed; conditions: 100 kPa, Liquid, minimum deviations angle, x1 = 1

CCCCCC[n+]1ccn(C)c1.O=S(=O)([N-]S(=O)(=O)C(F)(F)F)C(F)(F)F
[1]
Conditions	refractive index
282.99 K	1.4329
284.26 K	1.4324
285.8 K	1.432
286.91 K	1.4317
288.05 K	1.4313
289.17 K	1.431
290.22 K	1.4307
291.28 K	1.4304
292.38 K	1.4301
293.39 K	1.4298

CCCCCC[n+]1ccn(C)c1.O=S(=O)([N-]S(=O)(=O)C(F)(F)F)C(F)(F)F + Brc1ccccc1
[2]
Conditions	refractive index
282.99 K	1.4329
284.26 K	1.4324
285.8 K	1.432
286.91 K	1.4317
288.05 K	1.4313
289.17 K	1.431
290.22 K	1.4307
291.28 K	1.4304
292.38 K	1.4301
293.39 K	1.4298

Brc1ccccc1 [bromobenzene]
[1]
Conditions	refractive index
283 K	1.5612
284.4 K	1.5605
285.75 K	1.5598
286.96 K	1.5591
287.98 K	1.5585
288.99 K	1.558
290.11 K	1.5574
291.22 K	1.5568
292.32 K	1.5563
293.32 K	1.5557
